Results from publication PMC10051485 (Pharmaceuticals, 2023).
“Also recorded” adds a separate entry of the source.

Assays:
[1] = Antioxidant activity (DPPH assay); conditions: for IC50: DPPH 0.4 mM, 30 min in darkness, read-out: IC50 (µM) ± RSD, antioxidative activity
Procedure: Increased generation of free radicals also results in cytotoxicity from Aβ42. This effect might be associated with the Aβ1–42 mediated neurotoxicity. Therefore, it was intriguing to research the roles of the synthesized compounds in assisting oxidative stress, thus preventing cell death. By employing vitamin C as a positive control, the antioxidative properties of synthesized compounds were assessed using the DPPH assay. The activities were presented as the IC50 in Table 4.
Antioxidant activity of tested compounds was determined by the reaction of stable DPPH radical with some modification. Briefly, various concentrations of test compounds were added in 96-well plates and then the methanolic DPPH solution (0.4 mM, 0.1 mL) into each well. The reaction mixture was placed for 30 min in darkness. The degree of purple DPPH decolorization to yellow DPPH indicated the scavenging capacity of the test compounds. The absorbance of the mixture was determined at 517 nm using a microplate reader and L-ascorbic acid served as a positive control. The percent of antioxidant activity was calculated as follow: [1 − (Asample − Ablank)/Acontrol] × 100.

[2] = target: T1, Acetylcholinesterase (AChE) (Electrophorus electricus, UniProt O42275); assay: Antiacetylcholinesterase activity (Ellman assay); assay type: biochemical, Electrophorus electricus (electric eel); conditions: for inhibition at 100 µM: read-out: % Inhibition ± RSD of acetylcholinesterase; for % Inhibition ± RSD of acetylcholinesterase: at 100 µM
T1 construct: purchased Sigma type VI-S
T1 sequence (O42275 24-633): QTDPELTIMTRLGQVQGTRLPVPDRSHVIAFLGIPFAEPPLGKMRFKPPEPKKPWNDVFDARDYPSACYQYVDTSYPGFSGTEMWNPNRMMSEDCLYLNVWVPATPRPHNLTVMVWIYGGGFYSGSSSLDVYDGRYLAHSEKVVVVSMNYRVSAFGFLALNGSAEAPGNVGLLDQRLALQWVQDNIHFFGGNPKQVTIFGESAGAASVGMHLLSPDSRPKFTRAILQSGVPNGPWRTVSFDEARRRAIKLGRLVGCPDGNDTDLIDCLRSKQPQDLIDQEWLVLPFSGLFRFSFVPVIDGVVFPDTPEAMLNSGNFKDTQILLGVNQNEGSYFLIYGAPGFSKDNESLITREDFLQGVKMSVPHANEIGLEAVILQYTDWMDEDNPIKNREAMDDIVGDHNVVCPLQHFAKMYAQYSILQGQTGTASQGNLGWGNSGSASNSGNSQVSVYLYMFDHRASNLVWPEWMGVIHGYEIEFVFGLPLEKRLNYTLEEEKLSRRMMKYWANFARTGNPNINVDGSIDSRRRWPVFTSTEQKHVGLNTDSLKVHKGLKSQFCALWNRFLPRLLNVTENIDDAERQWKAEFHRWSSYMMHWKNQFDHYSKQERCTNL
Procedure: All the chemicals were purchased from commercial suppliers and were used without any purification. Acetylcholinesterase from Electrophorus electricus (electric eel) type VI-S was produced from Sigma. […] SK-N-SH human neuroblastoma cell line was obtained from the American Type Culture Collection (ATCC HTB-11). The melting point of all compounds was determined on an Electrothermal model 9100 capillary melting point apparatus. Infrared (IR) spectra were run on Fourier Transform Infrared Spectroscopy (FT-IR) (Nicolet 6700, Thermo Scientific, Waltham, MA, USA) using the direct compression technique and record in cm^−1. Proton and carbon nuclear magnetic resonance (^1H NMR, ^13C NMR) spectra were obtained on an Advance 300 MHz NMR Spectroscopy (DPX-3000, Bruker, Switzerland) at 300 MHz and 75.45 MHz, respectively. Chemical shifts (δ) were reported in parts per million (ppm). The NMR solvents used were deuterated dimethylsulfoxide (DMSO-d6, δ = 2.49 ppm) and deuterated chloroform (CDCl3, δ = 7.25 ppm). Mass spectra were determined on a LCQ Fleet Ion Trap Mass Spectrometry using the ESI method. Silica gel 60 (Merck, Art 7734) was used for column chromatography as an adsorbent. The ratio of sample and the adsorbent was about 1:40–60 by weight. The mobile phases developed for thin-layer chromatography (TLC) were generally applied for a column. TLC investigations routinely used for chromatographic separations were carried out on silica gel F254 coated aluminum sheets 20 × 20 cm (Merck, 0.2 mm thickness). The components were detected by visualization under ultraviolet (UV) light at λ of 254 and 365 nm. All solvents were reagent grade and, when necessary, were purified and dried by standard methods. Starting materials and reagents were obtained from commercial suppliers.
Acetylcholinesterase (AChE) inhibitory activity was assayed by modified Ellman’s method using 96-well microplates. […] The absorbance of the mixture in each well was measured at 405 nm by using a microplate reader. After adding 25 µL of 0.22 U/mL AChE in Buffer II into each well, the measurement of absorbance was carried out again at 405 nm and repeated every 45 s for 10 min cycles by a microplate reader (Infinite M200, Tecan, Switzerland). […] The assay was performed in triplicate. […] The percent of enzyme inhibition was calculated as follows: {[(A-B) − (C − D)]/(A − B)} × 100, where A and C were the absorbances of the control treatment and test compounds; and B and D were blank of control and test compounds.

[3] = tested on: SK-N-SH neuroblastoma cells; assay: Protection of SK-N-SH neuroblastoma against Aβ42-induced cell death (MTT assay); conditions: for viability at 31.25 µM: Homo sapiens, SK-N-SH, read-out: % Viability ± RSD, neuroprotective effect against Aβ induced damage; for % Viability ± RSD, neuroprotective effect against Aβ induced damage: pretreated 3 h at IC50 of antiaggregation (compounds 9 and 10 at 31.25 µM), then 25 µM Aβ42 for 24 h
Procedure: The effects of Aβ42 on the viability of SK-N-SH neuroblastoma cells were investigated using an MTT reduction test. MTT is a tetrazolium salt that can be reduced to formazan by mitochondria dehydrogenase; the reaction is active only in living cells.
The relative cell viability (compared with the control) was then assessed.
(§1) Quantitative measurement of cell viability was performed by MTT assay. Briefly, SK-N-SH cells were seeded at a density of 5 × 10^4 cells/100 µL into each well of 96-well plate and incubated at 37 °C in 5% CO2 for 24 h. After incubation, the tested compounds were added at different concentrations, from 0 to 1000 µM. After incubation for 24 h, 50 µL of 3-(4,5-dimethylthiazol-2-yl)-2,5-diphenyltetrazolium bromide (MTT) stock solution (1 mg/mL) was added to each well and incubated at 37 °C for 3 h. Absorbance (A) of each well was measured using a plate reader at a wavelength of 590 nm. Three independent experiments were performed, and results were expressed as mean ± SD. […] Each concentration was prepared in triplicate. […] After incubation for 24 h, 50 µL of MTT stock solution (1 mg/mL) was added to each well and incubated at 37 °C for 3 h. The absorbance (A) of each well was measured using a plate reader at a wavelength of 590 nm. Three independent experiments were performed, and results were expressed as mean ± SD.
(§2) The percent of cell viability was calculated as follow: (A590nm of treated cells/A590nm of untreated cells) × 100.

[4] = target: T2, Aβ1–42 (Homo sapiens, UniProt P05067); assay: Anti-Aβ aggregation activity (Thioflavin T fluorescence assay); assay type: biochemical; conditions: for IC50: ThT assay, Aβ1–42, 24 h, room temperature, pH 7.4, read-out: IC50 (µM) ± RSD, antiaggregation action on Aβ42
T2 construct: Amyloid beta (Aβ1–42) was purchased from the American Peptide Company; purchased American Peptide Company (Sunnyvale, CA, USA)
T2 sequence (P05067 672-713): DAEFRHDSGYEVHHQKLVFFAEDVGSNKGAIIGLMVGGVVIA
Procedure: Each compound was diluted in 50 mM Tris-HCl (pH 7.4) to achieve a concentration between 10 nM and 100 µM using 5 concentration points. A total of 1 µL of each sample solution was added to 96-well plates. […] The plate was incubated in the dark at room temperature for 24 h with no agitation. After an incubation period, 200 µL of 5 µM ThT in 50 mM Tris-HCl (pH 7.4) was added to each well. Fluorescence was measured on a SpectraMax GEMINI EM (Molecular Devices, Sunnyvale, CA, USA) dual scanning microplate spectrofluorometer with excitation and emission wavelengths at 446 nm and 500 nm, respectively. The percent of antiaggregation was calculated as follows: [1 − (Fsample − Fblank)/Fcontrol] × 100.

[5] = tested on: SK-N-SH neuroblastoma cells; assay: Cytotoxicity on SK-N-SH neuroblastoma cells (MTT assay); conditions: MTT, 24 h; for Highest concentration that showed nontoxicity on SK-N-SH cells: tested 0–1000 µM; for % Viability ± RSD at the highest nontoxic concentration: at the concentration of Table 2
Procedure: (§3) SK-N-SH cells were pretreated for 3 h with the respective half-maximal inhibitory doses of the tested compounds (except 9 and 10) before incubating with 25 μM Aβ42 for 24 h to determine the neuroprotective effect against Aβ42-induced toxicity. The relative cell viability (compared with the control) was then assessed.
as §1, §2

[6] = in vitro; conditions: human
Procedure: as §3, §1, §2

[7] = tested on: SK-N-SH cells; assay: Morphological cell changes (phase contrast inverted microscope); assay type: cell-based, human; conditions: 25 µM Aβ42, 24 h
Procedure: The effect of Aβ42 in inducing cell death was confirmed using a phase-contrast inverted microscope.
To determine the effect of designed compounds on cell morphology, the observation of cells on phase contrast inverted microscope was performed. […] After incubation, the medium was removed and replaced with various concentrations of the designed compound and incubated for 24 h. After cells were treated with compounds or Aβ1–42, media were removed and treated cells were washed once with phosphate buffer saline (PBS). Then, cells were observed under phase contrast inverted microscope at 400 magnifications.

| Structure (SMILES) | IC50 [1] | inhibition at 100 µM [2] | viability at 31.25 µM [3] | IC50 [4] | Fold more potent against Aβ aggregation than methyl ester 7 ([4]; compared to compound 7) | Highest concentration that showed nontoxicity on SK-N-SH cells [5] | viability at 24 h [6] | % Viability ± RSD at the highest nontoxic concentration [5] | % Inhibition ± RSD of acetylcholinesterase [2] | % Viability ± RSD, neuroprotective effect against Aβ induced damage [3] | Fold less potent antioxidant than compound 5 ([1]; compared to compound 5) | Fold reduction of anti-Aβ aggregation versus compound 9 ([4]; p-CH3 (compound 9) replaced with p-F (compound 10)) | Fold increase of antioxidant potency versus compound 9 ([1]; p-CH3 (compound 9) converted to p-F (compound 10)) | Morphology of SK-N-SH cells treated with Aβ42 and compound [7] |
| --- | --- | --- | --- | --- | --- | --- | --- | --- | --- | --- | --- | --- | --- | --- |
| O=C1O[C@H]([C@@H](O)CO)C(O)=C1O [Vitamin C, L-ascorbic acid, reference compound] | 13.3 µM |  |  |  |  |  |  |  |  |  |  |  |  |  |
| CNC(=O)Cc1c(C)[nH]c2ccc(Oc3ccccc3)cc12 [Compound 4, 2-Methyl-3-(methylethanamide-2-yl)-5-phenoxy Indole] | 176 µM | 9.73% | 72.3 ± 1.85% | 3.26 µM | 4.3 fold | 31.25 µM | 93.7 ± 3.23% |  |  |  |  |  |  |  |
| C[S+](C)[O-] [DMSO] |  |  |  |  |  |  |  | 92.08 ± 2.86% |  |  |  |  |  |  |
| Cc1ccc(CNC(=O)Cc2c(C)[nH]c3ccc(Oc4ccccc4)cc23)cc1 [Compound 9, 2-Methyl-3-(4-methylbenzylethanamide-2-yl)-5-phenoxy Indole] | 265 µM |  |  | 53.7 µM |  | 31.25 µM |  | 95.21 ± 3.00% | 12.5 ± 4.57% | 80.38 ± 3.54% |  |  |  |  |
| COC(=O)Cc1c(C)[nH]c2ccc(Oc3ccccc3)cc12 [Compound 7, 2-Methyl-3-(methyl ethanoate-2-yl)-5-phenoxy Indole] | 145 µM | 11% | 83.7 ± 2.21% | 14 µM |  | 31.25 µM | 93.4 ± 2.15% |  |  |  |  |  |  |  |
| Cc1[nH]c2ccc(Oc3ccccc3)cc2c1CC(=O)O [Compound 3, 2-Methyl-3-(carboxymethyl)-5-phenoxy Indole] | 47.1 µM | 29.3% |  | 18.8 µM |  | 31.25 µM | 90.4 ± 3.69% |  |  |  |  |  |  |  |
| CCOC(=O)Cc1c(C)[nH]c2ccc(Oc3ccccc3)cc12 [Compound 6, 2-Methyl-3-(ethyl ethanoate-2-yl)-5-phenoxy Indole] | 190 µM | 19.9% |  | 19.1 µM |  | 31.25. µM | 89.5 ± 2.11% |  |  |  |  |  |  |  |
| Cc1ccc(S(=O)(=O)NC(=O)Cc2c(C)[nH]c3ccc(Oc4ccccc4)cc23)cc1 [Compound 12, 2-Methyl-3-(4-methylbenzesulfonylethanamide-2-yl)-5-phenoxy Indole] | 121 µM |  |  | 9.48 µM |  | 15.63 µM |  | 90.73 ± 4.64% | 31.52 ± 4.90% | 71.85 ± 1.82% |  |  |  |  |
| Cc1[nH]c2ccc(Oc3ccccc3)cc2c1CC(=O)NC#N [Compound 8, 2-Methyl-3-(cyanoethanamide-2-yl)-5-phenoxy Indole] | 85.5 µM | 6.61% |  | 20.6 µM |  | 62.50 µM | 93.8 ± 3.66% |  |  |  | 3.03 fold |  |  |  |
| Cc1[nH]c2ccc(Oc3ccccc3)cc2c1CC(=O)Nc1ccccc1 [Compound 11, 2-Methyl-3-(phenylethanamide-2-yl)-5-phenoxy Indole] | 111 µM | 30% |  | 13.1 µM |  | 15.63 µM | 94.3 ± 3.31% |  |  |  |  |  |  |  |
| Cc1[nH]c2ccc(Oc3ccccc3)cc2c1CC(=O)NCc1ccc(F)cc1 [Compound 10, 2-Methyl-3-(4-fluorobenzylethanamide-2-yl)-5-phenoxy Indole] | 86 µM |  |  | 72.7 µM |  | 31.25 µM |  | 80.51 ± 3.96% | 12.45 ± 4.98% | 63.05 ± 2.70% |  | 1.4 fold | 3.08 fold |  |
| Cc1[nH]c2ccc(Oc3ccccc3)cc2c1CC(=O)NS(C)(=O)=O [Compound 5, 2-Methyl-3-(methylsulfonylethanamide-2-yl)-5-phenoxy Indole] | 28.2 µM | -5.66% |  | 3.18 µM |  | 62.50 µM | 93 ± 1.02% |  |  |  |  |  |  | healthy cell bodies with neurites; also recorded: healthy cell bodies and neuritis |
| COc1cc(/C=C/C(=O)CC(=O)/C=C/c2ccc(O)c(OC)c2)ccc1O [Curcumin, reference compound] |  |  |  |  |  | 15.63 µM | 94.4 ± 1.83% |  |  |  |  |  |  |  |
